Assays:
[1] = test system: antibodies in sera from SARS patients (sera 1a, 1b, 2, 6, 37, 62, London, SARS-yellow, SARS-green); type: binding, human; parameters: Binding of serum 6 to linear peptides of protein X1 of SARS-CoV Urbani / Binding of serum 37 to linear peptides of protein X1 of SARS-CoV Urbani / Binding of serum 6 to looped/cyclic peptide (PEPSCAN-ELISA) / Binding of serum 37 to looped/cyclic peptide (PEPSCAN-ELISA) / Binding of serum 37 to looped/cyclic peptides of protein X1 of SARS-CoV Urbani / Binding of serum 6 to linear peptides of protein X2 / Binding of serum 37 to linear peptides of protein X2 / Binding of serum 37 to looped/cyclic peptides of protein X2 of SARS-CoV Urbani / Binding of serum 6 to linear peptides of protein M of SARS-CoV Urbani / Binding of serum 37 to linear peptides of protein M of SARS-CoV Urbani / Binding of serum 6 to looped/cyclic peptides of protein M of SARS-CoV Urbani / Binding of serum 37 to looped/cyclic peptides of protein M of SARS-CoV Urbani / Binding of serum 6 to linear peptides of protein X3 of SARS-CoV Urbani / Binding of serum 37 to linear peptides of protein X3 of SARS-CoV Urbani / Binding of serum 37 to looped/cyclic peptides of protein X3 of SARS-CoV Urbani / Binding of serum 6 to linear peptides of protein X4 of SARS-CoV Urbani / Binding of serum 37 to linear peptides of protein X4 of SARS-CoV Urbani / Binding of serum 37 to looped/cyclic peptides of protein X4 of SARS-CoV Urbani / Binding of serum 6 to linear peptides of protein X5 of SARS-CoV Urbani / Binding of serum 37 to linear peptides of protein X5 of SARS-CoV Urbani / Binding of serum 37 to looped/cyclic peptides of protein X5 of SARS-CoV Urbani / Binding of serum 6 to linear peptides of protein N of SARS-CoV Urbani / Binding of serum 37 to linear peptides of protein N of SARS-CoV Urbani / Binding of serum 6 to linear peptide (PEPSCAN-ELISA) / Binding of serum 1a to looped/cyclic peptides of protein N of SARS-CoV Urbani / Binding of serum 1b to looped/cyclic peptides of protein N of SARS-CoV Urbani / Binding of serum 2 to looped/cyclic peptides of protein N of SARS-CoV Urbani / Binding of serum 6 to looped/cyclic peptides of protein N of SARS-CoV Urbani / Binding of serum 37 to looped/cyclic peptides of protein N of SARS-CoV Urbani / Binding of serum 62 to looped/cyclic peptides of protein N of SARS-CoV Urbani / Binding of serum London to looped/cyclic peptides of protein N of SARS-CoV Urbani / Binding of serum SARS-green to looped/cyclic peptides of protein N of SARS-CoV Urbani: unit not given here
[2] = test system: control sera (pooled serum of ten healthy LUMC hospital workers; commercial negative donor pooled serum from the Dutch bloodbank); type: binding, human; parameters: Binding of Control serum LUMC to linear peptides / Binding of Control serum Blood-bank to linear peptides / Binding of Control serum LUMC to looped peptides / Binding of Control Serum Blood-Bank to Looped peptides / Binding of Control serum LUMC to linear peptides of the protein M of SARS-CoV Urbani / Binding of Control serum Blood-bank to linear peptides of the protein M of SARS-CoV Urbani / Binding of Control serum LUMC to looped peptides of the protein M of SARS-CoV Urbani / Binding of Control Serum Blood-Bank to Looped peptides of the protein M of SARS-CoV Urbani: unit not given here
[3] = test system: rabbit serum obtained by immunizing a rabbit with the SARS-CoV strain Frankfurt 1; type: binding; parameters: Binding of a rabbit serum to linear peptides / Binding of a rabbit serum to looped peptides / Rabbit serum linear peptides / Rabbit serum looped peptides / Binding of a rabbit serum to linear peptides of protein N of SARS-CoV Urbani (Rabbit serum linear peptides) / Binding of a rabbit serum to looped/cyclic peptides of protein N of SARS-CoV Urbani (Rabbit serum looped peptides): unit not given here

AALVFLILCFTIKRK
0.6: Binding of serum 2 to linear peptides of protein X4 of SARS-CoV Urbani [1] | Binding of serum 37 to looped/cyclic peptides of protein X4 of SARS-CoV Urbani [1] | Binding of Control serum LUMC to looped peptides [2] | Rabbit serum looped peptides [3]
0.7: Binding of serum 1a to linear peptides of protein X4 of SARS-CoV Urbani [1] | Binding of serum 2 to looped/cyclic peptides of protein X4 of SARS-CoV Urbani [1] | Binding of serum 6 to looped/cyclic peptides of protein X4 of SARS-CoV Urbani [1] | Binding of serum 62 to looped/cyclic peptides of protein X4 of SARS-CoV Urbani [1] | Binding of serum SARS-green to linear peptides of protein X4 of SARS-CoV Urbani [1] | Binding of serum SARS-yellow to linear peptides of protein X4 of SARS-CoV Urbani [1] | Binding of Control serum LUMC to linear peptides [2]
0.5: Binding of serum 1b to looped/cyclic peptides of protein X4 of SARS-CoV Urbani [1] | Binding of serum London to looped/cyclic peptides of protein X4 of SARS-CoV Urbani [1] | Binding of serum SARS-yellow to looped/cyclic peptides of protein X4 of SARS-CoV Urbani [1]
0.9: Binding of Control serum Blood-bank to linear peptides [2]
0.8: Binding of serum 1a to looped/cyclic peptides of protein X4 of SARS-CoV Urbani [1] | Binding of serum 1b to linear peptides of protein X4 of SARS-CoV Urbani [1] | Binding of serum 6 to linear peptides of protein X4 of SARS-CoV Urbani [1] | Binding of serum 37 to linear peptides of protein X4 of SARS-CoV Urbani [1] | Binding of serum 62 to linear peptides of protein X4 of SARS-CoV Urbani [1] | Binding of serum London to linear peptides of protein X4 of SARS-CoV Urbani [1] | Binding of Control Serum Blood-Bank to Looped peptides [2] | Rabbit serum linear peptides [3]
0.4: Binding of serum SARS-green to looped/cyclic peptides of protein X4 of SARS-CoV Urbani [1]

AAVYRINWVTGGIAI
0.2: Binding of serum London to looped/cyclic peptides of protein M of SARS-CoV Urbani [1]
0.8: Binding of Control Serum Blood-Bank to Looped peptides of the protein M of SARS-CoV Urbani [2] | Binding of Control serum Blood-bank to linear peptides of the protein M of SARS-CoV Urbani [2]
0.9: Binding of serum 1a to linear peptides of protein M of SARS-CoV Urbani [1]
0.3: Binding of serum SARS-yellow to linear peptides of protein M of SARS-CoV Urbani [1]
0.4: Binding of serum 1b to looped/cyclic peptides of protein M of SARS-CoV Urbani [1] | Binding of serum 62 to looped/cyclic peptides of protein M of SARS-CoV Urbani [1] | Binding of serum London to linear peptides of protein M of SARS-CoV Urbani [1] | Rabbit serum linear peptides [3] | Rabbit serum looped peptides [3]
0.6: Binding of serum 1a to looped/cyclic peptides of protein M of SARS-CoV Urbani [1] | Binding of serum 2 to looped/cyclic peptides of protein M of SARS-CoV Urbani [1] | Binding of serum 37 to linear peptides of protein M of SARS-CoV Urbani [1] | Binding of serum SARS-green to linear peptides of protein M of SARS-CoV Urbani [1]
1.0: Binding of Control serum LUMC to linear peptides of the protein M of SARS-CoV Urbani [2]
0.5: Binding of serum 6 to linear peptides of protein M of SARS-CoV Urbani [1] | Binding of serum 6 to looped/cyclic peptides of protein M of SARS-CoV Urbani [1] | Binding of serum 62 to linear peptides of protein M of SARS-CoV Urbani [1] | Binding of Control serum LUMC to looped peptides of the protein M of SARS-CoV Urbani [2]
0.7: Binding of serum 1b to linear peptides of protein M of SARS-CoV Urbani [1] | Binding of serum 2 to linear peptides of protein M of SARS-CoV Urbani [1] | Binding of serum 37 to looped/cyclic peptides of protein M of SARS-CoV Urbani [1] | Binding of serum SARS-yellow to looped/cyclic peptides of protein M of SARS-CoV Urbani [1]
0.0: Binding of serum SARS-green to looped/cyclic peptides of protein M of SARS-CoV Urbani [1]

AAYNRYRIGNYKLNT
0.6: Binding of serum 37 to linear peptides of protein M of SARS-CoV Urbani [1] | Rabbit serum looped peptides [3]
0.2: Binding of serum SARS-yellow to linear peptides of protein M of SARS-CoV Urbani [1]
0.9: Binding of Control serum Blood-bank to linear peptides of the protein M of SARS-CoV Urbani [2]
0.7: Binding of serum 1a to linear peptides of protein M of SARS-CoV Urbani [1] | Binding of serum 1a to looped/cyclic peptides of protein M of SARS-CoV Urbani [1] | Binding of serum 2 to linear peptides of protein M of SARS-CoV Urbani [1] | Binding of serum 62 to looped/cyclic peptides of protein M of SARS-CoV Urbani [1] | Binding of serum SARS-yellow to looped/cyclic peptides of protein M of SARS-CoV Urbani [1] | Binding of Control serum LUMC to looped peptides of the protein M of SARS-CoV Urbani [2]
0.4: Binding of serum London to linear peptides of protein M of SARS-CoV Urbani [1] | Rabbit serum linear peptides [3]
0.8: Binding of serum 2 to looped/cyclic peptides of protein M of SARS-CoV Urbani [1] | Binding of serum 6 to linear peptides of protein M of SARS-CoV Urbani [1] | Binding of Control Serum Blood-Bank to Looped peptides of the protein M of SARS-CoV Urbani [2] | Binding of Control serum LUMC to linear peptides of the protein M of SARS-CoV Urbani [2]
1.3: Binding of serum 6 to looped/cyclic peptides of protein M of SARS-CoV Urbani [1]
0.5: Binding of serum 1b to linear peptides of protein M of SARS-CoV Urbani [1] | Binding of serum 1b to looped/cyclic peptides of protein M of SARS-CoV Urbani [1] | Binding of serum 37 to looped/cyclic peptides of protein M of SARS-CoV Urbani [1] | Binding of serum 62 to linear peptides of protein M of SARS-CoV Urbani [1] | Binding of serum London to looped/cyclic peptides of protein M of SARS-CoV Urbani [1] | Binding of serum SARS-green to linear peptides of protein M of SARS-CoV Urbani [1]
0.3: Binding of serum SARS-green to looped/cyclic peptides of protein M of SARS-CoV Urbani [1]

ACADGTRHTYQLRAR
0.5: Binding of serum 2 to linear peptides of protein X4 of SARS-CoV Urbani [1] | Binding of serum SARS-green to looped/cyclic peptides of protein X4 of SARS-CoV Urbani [1] | Binding of serum SARS-yellow to linear peptides of protein X4 of SARS-CoV Urbani [1] | Binding of serum SARS-yellow to looped/cyclic peptides of protein X4 of SARS-CoV Urbani [1] | Binding of Control Serum Blood-Bank to Looped peptides [2] | Binding of Control serum LUMC to looped peptides [2]
0.3: Binding of serum 1b to looped/cyclic peptides of protein X4 of SARS-CoV Urbani [1] | Binding of serum London to looped/cyclic peptides of protein X4 of SARS-CoV Urbani [1]
0.8: Binding of serum 62 to linear peptides of protein X4 of SARS-CoV Urbani [1]
0.7: Binding of serum 1a to linear peptides of protein X4 of SARS-CoV Urbani [1] | Binding of serum 1a to looped/cyclic peptides of protein X4 of SARS-CoV Urbani [1] | Binding of serum 37 to linear peptides of protein X4 of SARS-CoV Urbani [1] | Binding of serum 37 to looped/cyclic peptides of protein X4 of SARS-CoV Urbani [1] | Binding of serum London to linear peptides of protein X4 of SARS-CoV Urbani [1] | Binding of serum SARS-green to linear peptides of protein X4 of SARS-CoV Urbani [1]
0.6: Binding of serum 1b to linear peptides of protein X4 of SARS-CoV Urbani [1] | Binding of serum 2 to looped/cyclic peptides of protein X4 of SARS-CoV Urbani [1] | Binding of serum 6 to linear peptides of protein X4 of SARS-CoV Urbani [1] | Binding of serum 6 to looped/cyclic peptides of protein X4 of SARS-CoV Urbani [1] | Binding of serum 62 to looped/cyclic peptides of protein X4 of SARS-CoV Urbani [1] | Binding of Control serum Blood-bank to linear peptides [2] | Binding of Control serum LUMC to linear peptides [2]
recognized: Recognition of the peptide by the rabbit serum [3]
